Paper PMC12509006, “Synthesis and Evaluation of Pyridine-Based Antibacterial Agents that Inhibit ATP Synthase in Acinetobacter baumannii” (ACS Omega, 2025)
In brackets after ≈: the same amount, converted by molar mass. Where two headings read alike, the source gives them in different places.

Assays:
[1] = test system: HEK 293 cells; assay: XTT cell viability cytotoxicity assay; details: n = 3, 24 h treatment
[2] = test system: AB ATCC 17978; assay: Broth microdilution antimicrobial susceptibility assay, susceptible isolate; details: Acinetobacter baumannii, ATCC17978, read-out: MIC, AB ATCC 17978
[3] = test system: MDR AB BAA 1605; assay: Broth microdilution antimicrobial susceptibility assay, MDR isolate; details: Acinetobacter baumannii, BAA1605, read-out: MIC, MDR AB BAA 1605
[4] = biological target: T1, A. baumannii ATP synthase (Acinetobacter baumannii, UniProt A3M139); assay: AB ATP synthase inhibition: NADH-driven ATP synthesis in inverted inner membrane vesicles, luciferin/luciferase readout; assay type: biochemical; details: for Hill coefficient (Hill slope): fit of ATP synthesis dose response curve
T1 construct: endogenous electron transport chains of inverted inner membrane vesicles were energized with NADH; endogenous in cells; host or cells: inverted inner membrane vesicles prepared from A. baumannii ATCC 17978 cells
Protocol: Once synthesized, the pyridine compounds were tested for their ability to inhibit ATP synthase activity using our previously reported luciferin/luciferase assay. Briefly, endogenous electron transport chains of inverted inner membrane vesicles were energized with NADH to generate a proton gradient and to drive ATP synthesis. ATP was measured via luminescence from the luciferase-catalyzed oxidation of D-luciferin. Luminescence activities across increasing inhibitor concentrations were corrected for gradient independent background sources of ATP by comparison with a control containing the protonophore CCCP (carbonyl cyanide 3-chlorophenylhydrazone). The data were then fit to a four-parameter logistic dose–response curve, from which IC50 values and Hill coefficients were determined using a nonlinear least-squares regression.
A. baumannii (ATCC 17978) cells were grown in LB medium at 37 °C with shaking at 150 rpm and harvested by centrifugation in the late exponential phase of growth. Cells were resuspended in TMG buffer (50 mM Tris-HCl, pH 7.5, 5 mM MgCl2, 10% v/v glycerol) with 1 mM phenylmethanesulfonyl fluoride, 1 mM dithiothreitol, and a small amount of DNase and lysed by two passes through an Avestin B15 homogenizer at 19,000 psi. Lysate was cleared by centrifugation at 9000g and inverted membrane vesicles were collected from the supernatant by centrifugation at 169,000g. To reduce background ATP synthesis activity in AB vesicles, it was important to wash the membranes by resuspending in TMG buffer and centrifuging again at 169,000g. Washed pellets were resuspended in TMG buffer, and aliquots were stored at −80 °C. Once thawed, aliquots were not refrozen. Protein concentration in membrane vesicles was determined using a modified Lowry assay.
In vitro ATP synthesis activity of inverted inner membrane vesicles was measured as previously described. A reaction solution was prepared containing 5 mM tricine-KOH, pH 8.0, 50 mM KCl, 2.5 mM MgCl2, 0.1 mM adenosine diphosphate, 3.75 mM potassium phosphate, and 2.5 mM NADH and distributed into a 96-well plate. NADH-driven ATP synthesis was initiated by addition of inverted vesicles to 50 μg/mL and allowed to proceed for 10 min. The reaction was stopped by transferring an aliquot into 1% trichloroacetic acid. The stopped reaction was diluted 100-fold with deionized water and a sample was transferred to luciferase solution containing 25 mM tricine-NaOH, pH 7.8, 5 mM MgSO4, 0.1 mM EDTA, 0.1 mM NaN3, 150 μg/mL luciferin, and 7.5 μg/mL luciferase. Luminescence was measured in an opaque white 96-well plate using a BioTek H1 multimode plate reader. Each replicate set included a positive control containing DMSO with no compound and a negative control containing carbonyl cyanide 3-chlorophenylhydrazone (CCCP). Luminescence values were corrected for background by subtracting the CCCP control and normalized to the luminescence of the DMSO control. Normalized activity was fit using a variable-slope dose response curve. Nonlinear regression, including prediction of 95% confidence bands, and pairwise comparisons of fits using the F-test method were completed using GraphPad Prism10. Relativeactivity=1/1+(c/IC50)^Hillslope […]
Figure S1. ATP synthesis inhibition by all pyridine compounds in order of WSA compound number. ATP synthesis activities in inverted inner membrane vesicles prepared from AB cells were measured in the presence of 0.0625-64 µg/mL, corrected for background ATP, and normalized to activity with DMSO alone (see methods). For each plot, dots are normalized activities at each concentration (n≥3) on a log 2 scale, solid lines are fitted dose response curves, and dashed lines show the 95% confidence range of the fit. IC50

[5] = test system: AB BAA 1605; assay: Checkerboard assay with colistin sulfate, BAA 1605; details: without partner drug
Protocol: (§1) Synthesized compounds in DMSO (2–128 μg/mL, row G-A) were combined with colistin sulfate in ultra purified water (0.125–32 μg/mL, column 2–10) in a 96-well microtiter plate checkerboard assay against ATCC 17978 and BAA-1605 (MDR). Briefly, liquid cultures of bacteria were grown for 14–16 h by inoculating a single bacterial culture into 10 mL TSB. To each well 88 μL of TSB, 10 μL of bacteria culture, and 1 from each master plate was added (see layout below). Plates were covered and incubated at 37 °C for 12–18 h.

[6] = test system: AB ATCC 17978; assay: Checkerboard assay with colistin sulfate, ATCC 17978; details: without partner drug
Protocol: as §1

[7] = inverted inner membrane vesicles, 0.0625-64 µg/mL, n≥3, Table S1, read-out: AB ATP Synthase Inhibition IC50 (converted)
[8] = Figure 2, read-out: IC50, AB ATP synthase inhibition (converted)

T1 sequence (A3M139 whole entry): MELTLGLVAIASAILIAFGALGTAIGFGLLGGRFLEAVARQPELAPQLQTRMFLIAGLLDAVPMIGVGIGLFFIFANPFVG

Compound	MIC, HEK 293 (cytotoxicity) [1] [µg/mL]	MIC [2] [µg/mL]	MIC [3] [µg/mL]	Hill coefficient (Hill slope) [4]	IC50 [4, 7] [nM]	IC50 [4, 8] [nM]	Hill coefficient (Hill slope) ([4]; listed as WSA305)	MIC alone, AB BAA 1605 [5] [µg/mL]	MIC alone, AB ATCC 17978 [6] [µg/mL]
COc1nc2ccc(Br)cc2cc1[C@@H](c1ccccc1)[C@@](O)(CCN(C)C)c1cccc2ccccc12 [Bedaquiline, bedaquiline, reference compound]	> 32								
CNC(C)C1CCC(N)C(OC2C(N)CC(N)C(OC3OCC(C)(O)C(NC)C3O)C2O)O1 (stereo not drawn) [Gentamicin, reference compound]		8 (≈ 16.8 µM)	> 16						
CCN1CCC(CCNCc2cccnc2SCc2ccccc2)CC1 [WSA 264]		> 128	> 128	-0.8	83900				
c1ccc(CSc2ncccc2CNCCC2CCN(C3CCCC3)CC2)cc1 [WSA 265]		> 128	> 128	-0.7	132000				
c1ccc(CSc2ncccc2CNCc2ccc(CN3CCCC3)cc2)cc1 [WSA 267]		128 (≈ 317 µM)	128 (≈ 317 µM)	-0.7	91700				
CN1CCN(CCNCc2cccnc2SCc2ccccc2)CC1 [WSA 268]		> 128	> 128	-0.5	> 180000				
CN1CCN(CCNCc2cc(Br)cnc2SCc2ccccc2)CC1 [WSA 271]	64 (≈ 147 µM)	> 128	> 128	-0.7	2300				
CCN1CCC(CCNCc2cc(Br)cnc2SCc2ccccc2)CC1 [WSA 272]	32 (≈ 71.4 µM)	128 (≈ 285 µM)	128 (≈ 285 µM)	-0.6	4460				
CN1CCN(CCNCc2cc(-c3ccccc3)cnc2SCc2ccccc2)CC1 [WSA 277]	16 (≈ 37 µM)	32 (≈ 74 µM)	128 (≈ 296 µM)	-0.7	2170				
COc1ccc(-c2cnc(SCc3ccccc3)c(CNCCN3CCN(C)CC3)c2)cc1 [WSA 278]	16 (≈ 34.6 µM)	64 (≈ 138 µM)	128 (≈ 277 µM)	-0.8		2070			
COc1ccc(-c2cnc(SCc3ccccc3)c(CNCCC3CCN(C4CCCC4)CC3)c2)cc1F [WSA 290]	4 (≈ 7.49 µM)	32 (≈ 60 µM)	32 (≈ 60 µM)	-0.7	356				
Fc1ccc(-c2cnc(SCc3ccccc3)c(CNCCC3CCN(C4CCCC4)CC3)c2)cc1 [WSA 291]	<2	32 (≈ 63.5 µM)	32 (≈ 63.5 µM)	-1.1	1190				
Fc1ccc(-c2cnc(SCc3ccccc3)c(CNCCC3CCN(C4CCCC4)CC3)c2)c(F)c1 [WSA 292]	4 (≈ 7.67 µM)	16 (≈ 30.7 µM)	32 (≈ 61.3 µM)	-1.1	997				
Brc1cnc(SCc2ccccc2)c(CNCc2ccc(CN3CCCC3)cc2)c1 [WSA 293]	64 (≈ 133 µM)	32 (≈ 66.3 µM)	64 (≈ 133 µM)	-1.2	3730				
c1ccc(CSc2ncc(-c3ccccc3)cc2CNCc2ccc(CN3CCCC3)cc2)cc1 [WSA 294]	8 (≈ 16.7 µM)	32 (≈ 66.7 µM)	32 (≈ 66.7 µM)	-0.7		1230			
Cc1ccc(-c2cnc(SCc3ccccc3)c(CNCc3ccc(CN4CCCC4)cc3)c2)cc1 [WSA 295]	16 (≈ 32.4 µM)	32 (≈ 64.8 µM)	128 (≈ 259 µM)	-0.7	1090				
COc1ccc(-c2cnc(SCc3ccccc3)c(CNCc3ccc(CN4CCCC4)cc3)c2)cc1 [WSA 296]	16 (≈ 31.4 µM)	32 (≈ 62.8 µM)	128 (≈ 251 µM)	-0.6		863			
COc1ccc(-c2cnc(SCc3ccccc3)c(CNCc3ccc(CN4CCCC4)cc3)c2)cc1F [WSA 297]	8 (≈ 15.2 µM)	32 (≈ 60.6 µM)	128 (≈ 243 µM)	-0.8		796			
Fc1ccc(-c2cnc(SCc3ccccc3)c(CNCc3ccc(CN4CCCC4)cc3)c2)c(F)c1 [WSA 299]	16 (≈ 31 µM)	32 (≈ 62.1 µM)	128 (≈ 248 µM)	-1.1	2130				
CCN1CCC(CCNCc2cc(-c3ccc(C)cc3)cnc2SCc2ccccc2)CC1 [WSA 300]	4 (≈ 8.7 µM)	16 (≈ 34.8 µM)	32 (≈ 69.6 µM)	-0.7	674				
Brc1cnc(SCc2ccccc2)c(CNCCC2CCN(C3CCCC3)CC2)c1 [WSA 301]	16 (≈ 32.8 µM)	128 (≈ 262 µM)	> 128	-0.5	2660				
c1ccc(CSc2ncc(-c3ccccc3)cc2CNCCC2CCN(C3CCCC3)CC2)cc1 [WSA 302]	16 (≈ 32.9 µM)	64 (≈ 132 µM)	64 (≈ 132 µM)	-0.8		988			
CN(C)c1ccc(-c2cnc(SCc3ccccc3)c(CNCCC3CCN(C4CCCC4)CC3)c2)cc1 [WSA 303]	4 (≈ 7.56 µM)	64 (≈ 121 µM)	128 (≈ 242 µM)	-1.2	1190				
CCN1CCC(CCNCc2cc(-c3ccccc3)cnc2SCc2ccccc2)CC1 [WSA 304]	8 (≈ 18 µM)	32 (≈ 71.8 µM)	64 (≈ 144 µM)	-0.7	1370				
CCN1CCC(CCNCc2cc(-c3ccc(OC)cc3)cnc2SCc2ccccc2)CC1 [WSA 305]	4 (≈ 8.41 µM)	32 (≈ 67.3 µM)	32 (≈ 67.3 µM)	-0.6	568		-0.7		
CCN1CCC(CCNCc2cc(-c3ccc(OC)c(F)c3)cnc2SCc2ccccc2)CC1 [WSA 306]	16 (≈ 32.4 µM)	32 (≈ 64.8 µM)	32 (≈ 64.8 µM)	-0.9	1070				
CCN1CCC(CCNCc2cc(-c3ccc(F)cc3)cnc2SCc2ccccc2)CC1 [WSA 307]	8 (≈ 17.3 µM)	32 (≈ 69 µM)	32 (≈ 69 µM)	-0.8	1160				
CCN1CCC(CCNCc2cc(-c3ccc(F)cc3F)cnc2SCc2ccccc2)CC1 [WSA 308]	16 (≈ 33.2 µM)	32 (≈ 66.4 µM)	64 (≈ 133 µM)	-0.9	1810				
colistin [reference compound]								1	2
